Where no end group is shown, it is not given here. The star is where a group is joined. FITC = O=C1OC2(c3ccc(O)cc3Oc3cc(O)ccc32)c2ccc(NC(=S)*)cc21
Key:
normal colonic mucosa = experiment: In vivo imaging with multi-spectral scanning fiber endoscope, normal mucosa; set-up: species or system mice; settings: mouse
Protocol: (§1) The CPC;Apc mice were first imaged with white light using a non-scanning endoscope (Karl Storz Veterinary Endoscopy, Goleta, Calif.) to assess for the presence of colonic adenomas that have a size between ˜0.5 to 4 mm in diameter. Any adenomas were rinsed of debris including stool and mucous, by delivering tap water through a 3 Fr instrument channel. Then, the fluorescent-labeled peptides were delivered topically at a concentration of 100 μM in 1×PBS in a volume of 1 mL to the distal 4 cm of the colon and rectum. The peptides were incubated for 5 minutes and then the unbound peptides were rinsed away with tap water 3 times. The colon was inspected for any residual peptide, and when clean, the colon was insufflated with air and imaged with the multi-spectral scanning fiber endoscope.

colonic adenomas = experiment: In vivo imaging with multi-spectral scanning fiber endoscope; set-up: species or system CPC; Apc mice; settings: for binding to colonic dysplasia/adenomas on fluorescence images / Average T/B: 100 μM topical, 5 min; for Average T/B: Multi-Spectral Scanning Fiber Endoscopy Results, mean ± SD; for range of T/B ratios: dysplasia versus normal appearing adjacent colonic mucosa
From the text: A scanning fiber endoscope system was adapted for fluorescence detection in three channels (RGB) using excitation at 440 (NDHB510APA, Nichia, Tokyo, Japan), 532 (FTEC532-V10TA0, Blue Sky Research, Milpitas, Calif.) and 635 (FMXL635-017TA0B, Blue Sky Research) nm using an RGB coupler (OZ Optics, Ottawa, Canada). The three laser sources are delivered simultaneously into the scanning fiber, and focused to the same point on the illumination plane using a custom lens assembly, as shown in the schematic in FIG. 2A. The laser power coming out of the distal tip of the endoscope is <2 mW for each channel, a level consistent with a non-significant risk (NSR) determination by the U.S. Food and Drug Administration (FDA, 21 CFR 812) for future human clinical studies. The amplitude of the spiral scanner was reduced to achieve a divergence angle of 70 deg (max 100 deg) to minimize noise in the periphery of the image. Fluorescence is collected by a ring of 12 step-index plastic optical fibers (POF) with numerical aperture (N.A.) of 0.63 and outer diameter of 250 μm (Toray Industries Inc, Tokyo, Japan).
as §1
Videos collected during endoscopy were exported as avi video files and converted into sequential png images using Apple QuickTime. White light and fluorescence images for each adenoma were analyzed in NIH Image J. The white light image was utilized to draw a region of interest (ROI) around the adenoma or adjacent normal appearing colonic mucosa which was then superimposed onto the fluorescence image. The mean fluorescence intensities were calculated for each ROI, and a target/background (T/B) ratio was calculated for each colonic adenoma and compared to the surrounding normal appearing mucosa.

[1] = tested on: human EMR specimens (normal mucosa, polypoid and non-polypoid dysplasia); experiment: Stereomicroscopic validation on EMR specimens; settings: 10 μmol/L, 5 min, mean±SEM
From the text: Binding of the candidate or control peptide to the dysplasia on freshly resected human specimens via endoscopic mucosal resection (EMR) was validated on fluorescence stereomicroscopy. Patients with previously diagnosed polypoid and non-polypoid dysplasia who were referred for EMR were recruited. Institutional review board approval was obtained from the VA Palo Alto Health Care System, and informed consent was acquired. After resection, the specimens were rinsed in PBS 3× to remove debris and mucous. An autofluorescence image was acquired before incubating with the peptide. Then, specimens were incubated with either the FITC-labeled candidate or control peptide at a concentration of 10 μmol/L for 5 min. The unbound peptide was rinsed off with PBS 3×. The mucosal surface of the specimen was oriented face up, and a dab of ink was applied to the upper border as a landmark to register the white light and fluorescence images with histology. A white light image was collected from the specimen with and without an overlying transparent grid that contains squares with dimensions of 1×1 mm^2. Fluorescence images were collected at 500 milliseconds per frame (with the overlying grid removed) using a stereomicroscope (Olympus SZX-16 equipped with Rolera camera; Olympus Corp, Tokyo, Japan) using 477 to 500 nm excitation and 500 to 630 nm emission. A correction to the fluorescence images was performed because the intensity at the center of the image is greater than that in the periphery due to differences in distance. A fluorescence image was collected from a solution of 10 μM FITC in a plate to provide a uniform target for calibration, allowing for quantitative analysis over the entire field of view. After the fluorescence intensities were corrected, lines along the length of the specimen spaced by 2-mm intervals in each image were identified using the grid from the white light image. The mean intensity from each 1×1 mm^2 interval along this length of tissue was calculated using Matlab and compared with histology. Histopathologic interpretation was performed by a gastrointestinal pathologist (HA) who classified the specimens stained with H&E as normal colonic mucosa, dysplasia, or adenocarcinoma. The histopathologic evaluation of the EMR specimens was conducted at VA Palo Alto Health Care System (AM) and classified as either dysplasia or normal mucosa.

Hs738.St/Int. cells [2] = experiment: Fluorescence microscopy of FITC-labeled peptides; format: cell-based, human; settings: 10 μM, 15 min
Protocol: (§2) Preferential binding of the FITC-Peptide 2 and FITC-Control peptide 2 to target and non-target cells was also validated via fluorescence microscopy. HT29 and Hs738.St/Int. cells were grown in 22 mm2 cover slips with ˜80% confluence. Blocking of non-specific binding was performed by adding PBS/0.5% BSA for 30 min. The cells were then incubated with 10 μM of FITC-Peptide 2 or FITC-Control peptide 2 either at 4 or 37° C. for 15 min followed by 1 μg/mL Hoechst dye (Sigma Aldrich, St. Louis, Mo.) along with the peptide. The cells were washed with PBS for 3 times and fixed with 4% paraformaldehyde at room temperature for 10 min. After fixation, the cells were washed again with PBS (1×) and mounted with ProLong® Gold reagent (Invitrogen, Carlsbad, Calif.) and the fluorescence images were acquired with Leica Confocal system. (Leica Microsystems GMBH, Wetzlar, 35578 Germany)
(§3) Preferential binding of the FITC-labeled candidate and control peptides to the target and non-target cells was further validated via fluorescence microscopy. HT29 and Hs738.St/Int. cells were grown on cover slips to ˜80% confluence. Blocking of non-specific binding was performed by adding PBS/0.5% BSA for 30 min. The cells were then incubated with 10 μM of 5-FITC-labeled candidate or control peptide at either 4 or 37° C. for 15 min followed by staining with 1 μg/mL Hoechst dye (Sigma Aldrich, St. Louis, Mo.) along with the peptide. The cells were washed 3× with PBS and fixed with 4% paraformaldehyde at RT for 10 min. After fixation, the cells were washed again with PBS and mounted with ProLong Gold reagent (Invitrogen, Carlsbad, Calif.) and fluorescence images were collected with confocal microscopy (Leica TCS SP5 Microsystems, Bannockburn, Ill.).

Hs738.St/Int. cells [3] = experiment: Flow cytometry of FITC-labeled peptides; format: cell-based, human; settings: 10 μM, 60 min, 4° C.
Protocol: (§4) Preferential binding of FITC-Peptide 2 to target cells was validated using flow cytometry. HT29 and Hs738.St/Int. (˜2×10^5) cells were grown, detached, and blocked as described above. These cells were incubated with the FITC-Peptide 2 or -Control peptide 2 (10 μM) for 60 min at 4° C. with continuous agitation. The cells were then washed (3×) with cold PBST followed by immediate fixing for 10 min. with 4% paraformaldehyde. The cells were washed again (1×) with PBS and resuspended in 1 mL of PBS. Flow cytometry was performed using FACSDiVa (BD® LSRII, BD Biosciences, San Jose, Calif.) and analyzed using Flowjo analysis program (Tree Star Inc., Ashland, Oreg.).
(§5) Preferential binding of the candidate peptide labeled with 5-FITC to the target and control cells was also validated using flow cytometry. HT29 and Hs738.St/Int. (˜2×10^5) cells were grown, detached, and blocked, as described above. These cells were incubated with the 5-FITC labeled candidate or control peptide (10 μM) for 60 min at 4° C. with continuous agitation. The cells were then washed 3× with cold PBST followed by immediate fixation for 10 min with 4% paraformaldehyde. The cells were washed again with PBS and resuspended in 1 mL of PBS. Flow cytometry was performed using FACSDiVa (BD® LSRII, BD Biosciences, San Jose, Calif.) and analyzed using Flowjo analysis program (Tree Star Inc. Ashland, Oreg.).

HT29 cells [4] = experiment: Flow cytometry of FITC-labeled peptides; format: cell-based, human; settings: 10 μM, 60 min, 4° C., FITC channel
Protocol: as §4, §5

[5] = tested on: human colon surgical specimens (normal mucosa, dysplastic adenomas, carcinoma); experiment: Binding of synthetic peptides to human surgical specimens of colon cancer (Example 9); settings: 10 μM, 15 min, RT
Protocol: Fresh frozen sections from human surgical specimens were cryosectioned with […] and used to localize peptide binding. The sectioned tissues were air dried and washed with PBS 1×. Sections were incubated with FITC labeled peptides (10 μM) for 15 min at RT. The sections were washed three times each for 1 min in PBS and fixed with 4% paraformaldehyde for 10 min. After fixing, the sections were washed again (1×) and mounted with ProLong® Gold reagent with DAPI (Invitrogen, Carlsbad, Calif.). The sections were imaged under a confocal microscope ([…]). All surgical specimens were obtained from the tissue procurement core of University of Michigan with approval from the Institutional Review Board (IRB).

[6] = tested on: human colonic mucosa sections (normal, dysplasia, adenocarcinoma); experiment: Peptide immunohistochemistry on frozen sections (Example 11); settings: 10 μM, 15 min, RT
Protocol: All specimens were obtained with approval from the University of Michigan Institutional Review Board (IRB). Freshly resected specimens of human colonic mucosa were frozen in OCT and sectioned with 10 μm thickness. The sections were then air dried, washed with PBS, and incubated with the FITC-labeled peptides at a concentration of 10 μM for 15 min at RT. The sections were washed 3× for 1 min in PBS and fixed with 4% paraformaldehyde for 10 min. After fixation, the sections were washed again and mounted with ProLong Gold reagent with DAPI (Invitrogen, Carlsbad, Calif.). The sections were imaged under a confocal microscope (Leica TCS SP5 Microsystems, Bannockburn, Ill.). Adjacent sections were sent for routine histology. The intensity for each image was calculated using Matlab (Mathworks, Natick, Mass.).

HT29 cells [7] = experiment: Competitive inhibition assay (bound phage counts); format: cell-based, human; settings: up to 200 μM unlabeled peptide
Protocol: Bound phage counts were performed to observe the competitive inhibition effect of the synthetic candidate heptapeptide with its representative phage counterpart in triplicate. HT29 cells (5×10^6) were detached with enzyme free cell dissociation buffer and blocked with 1% BSA containing PBS for 30 min at 4° C. The cells were washed and incubated with phage (2×10^11) for 15 min. Then, the cells were washed with PBS and immediately incubated with different concentrations of unlabeled peptide ranging from 10 to 200 μM for an additional 15 min. Cells were washed 3× and the bound phages were recovered as described above in bound phage counts. The bound phages were then tittered and counted, and the relative inhibition rate was calculated. The inhibition activity of no-insert WT phage by synthetic candidate peptide and phage with unrelated synthetic control peptide were used as negative controls.

HT29 cells [8] = experiment: Fluorescence microscopy of FITC-labeled peptides; format: cell-based, human; settings: 10 μM, 15 min, 4° C.
Protocol: as §2
In addition, the ability of the FITC-Peptide 2 peptide to internalize within the HT29 cells was tested. HT29 cells were incubated for 15 min. at either 4° C. or 37° C. in the presence of 10 μM FITC-Peptide 2.
as §3

Substance | signal on normal colonic mucosa (normal colonic mucosa) | binding to colonic dysplasia/adenomas on fluorescence images (colonic adenomas) | Average T/B (colonic adenomas) | range of T/B ratios (colonic adenomas) | fluorescence intensity on stereomicroscopy ([1]; non-polypoid dysplasia) | fluorescence intensity on stereomicroscopy ([1]; normal mucosa) | fluorescence intensity on stereomicroscopy ([1]; polypoid dysplasia) | binding to Hs738.St/Int. cells on microscopy (Hs738.St/Int. cells [2]) | binding to Hs738.St/Int. cells on flow cytometry (Hs738.St/Int. cells [3]) | total HT29 cell population bound (HT29 cells [4]) | total HT29 cell population bound (HT29 cells [4]; listed as control peptide) | binding to specimens classified from normal to carcinoma [5] | staining of any specimen (normal, dysplasia, adenocarcinoma) [6] | inhibition of KCCFPAQ phage binding to HT29 cells (HT29 cells [7]) | binding to the surface of HT29 cells (HT29 cells [8])
KCCFPAQ-DEAC: KCCFPAQ labeled with 7-Diethylaminocoumarin-3-carboxylic acid (DEAC) (cysteine pairing not given here; also: DEAC label, place not given here) | minimal signal | clearly displayed specific binding | 1.71±0.19 | 1.50-2.06 |  |  |  |  |  |  |  |  |  |  | 
AKPGYLS-TAMRA: AKPGYLS labeled with 5-Carboxytetramethylrhodamine (TAMRA) (also: TAMRA label, site not given here) | minimal signal | clearly displayed specific binding | 1.67±0.12 | 1.50-1.78 |  |  |  |  |  |  |  |  |  |  | 
GGGAGGGAGGGK (FITC)-NH2 (GGGAGGGAGGGK(FITC)-NH2; N-terminus assumed; SMILES C[C@H](NC(=O)CNC(=O)CNC(=O)CN)C(=O)NCC(=O)NCC(=O)NCC(=O)N[C@@H](C)C(=O)NCC(=O)NCC(=O)NCC(=O)N[C@@H](CCCCNC(=S)Nc1ccc2c(c1)C(=O)OC21c2ccc(O)cc2Oc2cc(O)ccc21)C(N)=O) [FITC-Control peptide 2, glycine/alanine control peptide, reference compound] |  |  |  |  | 21.8±4.1 AU | 16.5±2.5 AU | 14.0±3.0 AU | did not bind | bound minimally | 18.6% | 2.3% | not able to bind with any of the specimens | did not stain any of the specimens | No inhibition | did not bind

Source: patent US8901276B2, “Peptide reagents and methods for detection of colon dysplasia” (The Regents of the University of Michigan, priority 2010, dated 2014)
